Where “and” joins values, the source holds several entries; their conditions need not be identical. Equal values may be shown once. Read-outs that look alike come from different tables or passages of the source.
What was measured:
Format in all cases: in vivo
[1] = system: ulcer formation induced by stress; experiment: stress ulcer in rats, immobilization-water immersion method; conditions: for activity on ulcer formation induced by stress: orally; for Inhibition Rate / ED50: stress ulcer; for ED50: per os
Source text: Since 50 microns is a common particle diameter in pharmaceutical preparations, it was most surprising that such significant and important advantages accrued according to the present invention. Inhibition activity against stress ulcer in rats of the compound and pharmaceutically acceptable acid additio salts in the finely pulverized form of the present invention are set forth in Table 2.

[2] = system: male rats; experiment: toxicity on intraperitoneal injection (LD50); conditions: for LD50: injected intraperitoneally, male rats, limits given in brackets
Source text: This decrease in toxicity is totally unexpected and represents a significant and important advance in the art.

[3] = body weight increase inhibition on chronic oral administration; conditions: rats; compared with a maleate salt having an average particle diameter of about 50 microns
Procedure: A further advantage results from body weight increase inhibition which is one of the main side effects of the compound and salts of the present invention. When 10 mg/kg or more per day of either the compound or maleate salt is chronically administered to rats orally, body weight increase is inhibited. This is a side effect of triazines of this type. […] However, when the compound or a pharmaceutically acceptable acid addition salt thereof according to the present invention having an average particle diameter of about 8 microns was administered, the appearance of the side effect was only transient and moderate and the recovery of body weight was far faster as compared to that occurring when the compound was administered having an average particle diameter of about 50 microns.
The average particle sizes were 8 microns for the compound according to the present invention as compared to the same compound having an average particle diameter of 50 microns.

| SMILES | activity on ulcer formation induced by stress ([1]; dosage of 5 mg/kg) | Inhibition Rate ([1]; 0.37 mg/kg per os, three values, 0.37 mg/kg) | Inhibition Rate ([1]; 3.72 mg/kg per os, three values, 3.72 mg/kg) | LD50 [2] [mg/kg] | LD50 ([2]; listed as the same compound having an average particle diameter of about 50 microns) [mg/kg] | Inhibition Rate ([1]; 0.3 mg/kg) [%] | Inhibition Rate ([1]; 1.0 mg/kg) [%] | Inhibition Rate ([1]; 3.0 mg/kg) [%] | Inhibition Rate ([1]; 10 mg/kg) [%] | ED50 ([1]; determined from the data of Table 2) [mg/kg] | LD50 ([2]; listed as the maleate salt according to the present invention) [mg/kg] | improvement in body weight side effect [3] | ED50 ([1]; Rattus norvegicus, po, determined from the data of Table 2, read-out: ED50) [mg/kg] | activity on ulcer formation induced by stress ([1]; dosage of 1 mg/kg) | Inhibition Rate ([1]; 30 mg/kg) [%] | rats killed ([2]; intraperitoneal injection, dosages up to 3000 mg/kg) |
| --- | --- | --- | --- | --- | --- | --- | --- | --- | --- | --- | --- | --- | --- | --- | --- | --- |
| Nc1nc(N)nc(-c2cc(Cl)ccc2Cl)n1 [2,4-diamino-6-(2,5-dichlorophenyl)-1,3,5-triazine] | ineffective | 37% and 46% and 29% | 62% and 47% and 33% | 495 | 1740 |  |  |  |  |  |  |  |  |  |  |  |
| Nc1nc(N)nc(-c2cc(Cl)ccc2Cl)n1 [Substance (II), 2,4-diamino-6-(2,5-dichlorophenyl)-1,3,5-triazine] |  |  |  |  |  | 35 | 51 | 70 | 85 | 0.90 | 835 | particularly dramatic |  |  |  |  |
| Nc1nc(N)nc(-c2cc(Cl)ccc2Cl)n1 [Substance (I), 2,4-diamino-6-(2,5-dichlorophenyl)-1,3,5-triazine] |  |  |  |  |  | 33 | 45 | 63 | 70 |  |  |  | 1.22 | effective | 85 | no rats were killed |
